Measured values taken from ChEMBL document CHEMBL3045241, “Design, synthesis, and docking studies of novel telmisartanglitazone hybrid analogs for the treatment of metabolic syndrome” (Med Chem Res, 2009).
Activity calls are given as the source filed them. The calls are words filed in the database; no cut-off is given here.

Assays:
[1] = biological target: T1, Type-1 angiotensin II receptor A (Rattus norvegicus, UniProt P25095); assay: Displacement of [125I]-SI-Ang-2 from AT1 receptor in Rattus norvegicus Sprague-Dawley (rat) liver membranes after 2 hr; parameters: species or system Membrane
T1 sequence (P25095 whole entry): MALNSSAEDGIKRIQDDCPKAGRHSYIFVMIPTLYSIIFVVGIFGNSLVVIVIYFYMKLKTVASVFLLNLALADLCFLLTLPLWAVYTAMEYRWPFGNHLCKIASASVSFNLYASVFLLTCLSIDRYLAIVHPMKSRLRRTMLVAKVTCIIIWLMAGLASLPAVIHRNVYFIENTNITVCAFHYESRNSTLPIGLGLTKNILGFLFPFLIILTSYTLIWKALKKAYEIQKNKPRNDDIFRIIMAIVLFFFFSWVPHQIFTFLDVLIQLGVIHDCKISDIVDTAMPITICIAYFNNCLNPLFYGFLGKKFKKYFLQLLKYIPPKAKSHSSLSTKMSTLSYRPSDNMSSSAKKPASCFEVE

[2] = biological target: T2, Peroxisome proliferator-activated receptor gamma (Mus musculus) (UniProt P37238); assay: Agonist activity at Mus musculus (mouse) PPARgamma LBD expressed in african green monkey CV-1 cells co-expressing GAL4 assessed as […] at 1 uM after 24 hr by luciferase assay relative to rosiglitazone; assay type: cell-based
T2 sequence (whole entry): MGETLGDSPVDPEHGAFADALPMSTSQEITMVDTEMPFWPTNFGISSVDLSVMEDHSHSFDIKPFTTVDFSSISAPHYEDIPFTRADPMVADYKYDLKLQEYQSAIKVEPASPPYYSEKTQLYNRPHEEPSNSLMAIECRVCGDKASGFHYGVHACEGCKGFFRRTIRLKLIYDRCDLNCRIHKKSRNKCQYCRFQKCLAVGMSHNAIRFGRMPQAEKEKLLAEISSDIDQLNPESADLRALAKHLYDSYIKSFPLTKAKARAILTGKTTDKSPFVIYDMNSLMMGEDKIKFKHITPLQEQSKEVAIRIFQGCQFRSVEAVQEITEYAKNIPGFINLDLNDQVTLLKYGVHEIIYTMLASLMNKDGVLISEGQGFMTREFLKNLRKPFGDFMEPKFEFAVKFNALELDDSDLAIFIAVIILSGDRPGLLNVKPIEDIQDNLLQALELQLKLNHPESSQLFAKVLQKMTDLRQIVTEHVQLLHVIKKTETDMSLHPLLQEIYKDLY

3T3-L1 = assay: Induction of adipocyte differentiation in Mus musculus (mouse) 3T3L1 cells at 1 to 5 uM; assay type: functional, cell-based

| SMILES | Ki [1] [µM] | %max [2] [%] | Activity (3T3-L1) |
| --- | --- | --- | --- |
| CCCc1nc2c(C)cc(-c3nc4ccccc4n3C)cc2n1Cc1ccc(-c2ccccc2C(=O)O)cc1 | – | 21.2 | Active |
| CCCc1nc2c(C)cc(-c3nc4ccccc4n3C)cc2n1CCOc1ccc(CC2SC(=O)NC2=O)cc1C(=O)OC (stereo unspecified) | > 10 | – | – |
| CCCc1nc2c(C)cc(Br)cc2n1CCOc1ccc(CC2SC(=O)NC2=O)cc1C(=O)OC (stereo unspecified) | > 10 | 51.6 | – |

More lines, main results first:

| Ki [1] [µM] | %max [2] [%] | SMILES | Activity (3T3-L1) |
| --- | --- | --- | --- |
| > 10 | 90.4 | COC(=O)c1cc(CC2SC(=O)NC2=O)ccc1OCCN(C)C(=O)CCCCC1CCCCC1 (stereo unspecified) | – |
| > 10 | 11.9 | CCCc1nc2c(C)cc(-c3ccccc3)cc2n1CCOc1ccc(CC2SC(=O)NC2=O)cc1C(=O)OC (stereo unspecified) | – |
| > 10 | 38.7 | COC(=O)c1cc(CC2SC(=O)NC2=O)ccc1OCCn1c(CCCCC2CCCCC2)nc2ccccc21 (stereo unspecified) | – |
